“And” between values parts separate entries of the source, which are not always exact repeats. Identical values can stand only once. Inconclusive results and toxic doses are left out. Rule for the calls: active = survival T/C of 150% or more; inactive = T/C below 125% in these data.
Tested on: C57BL/6 mice, intracerebral ependymoblastoma, median survival T/C
Experiment: NCI In Vivo Anticancer Drug Screen. Data for tumor model Ependymoblastoma (intracerebral) in C57BL/6 mice
Settings: endpoint: median survival time, higher = longer survival
Description: The antitumor activity of compounds was measured in mice bearing transplantable tumors. Survival or tumor size were measured and the results are expressed as the measurement made in the treated group (T) divided by the measurement made in the vehicle treated control group (C). The tumor model used in this assay is Ependymoblastoma (intracerebral) in C57BL/6 mice

[1] = dose: 32.0 mg/kg/injection, schedule: Q01DX005 (ip), vehicle: saline
[2] = dose: 1.0 mg/kg/injection, schedule: Q01DX005 (ip), vehicle: saline with Tween-80
[3] = dose: 2.0 mg/kg/injection, schedule: Q01DX005 (ip), vehicle: saline with Tween-80
[4] = dose: 4.0 mg/kg/injection, schedule: Q01DX005 (ip), vehicle: saline with Tween-80

Measured: T/C

OC(CCl)CN1CC[N+]2(CC1)CC[N+]1(CCN(CC(O)CCl)CC1)CC2 (stereo unspecified)
inactive: dose: 40.0 mg/kg/injection, schedule: Q01DX005 (ip), vehicle: saline 109 % of control and 117 % of control

c1cc2n(n1)CCN2
inactive: [1] 108 % of control | dose: 64.0 mg/kg/injection, schedule: Q01DX005 (ip), vehicle: saline 100 % of control | dose: 128.0 mg/kg/injection, schedule: Q01DX005 (ip), vehicle: saline 102 % of control

CC(C)=CCC1=C(O)c2ccccc2C(=O)C1=O
inactive: dose: 32.0 mg/kg/injection, schedule: Q01DX005 (ip), vehicle: Klucel (hydroxypropylcellulose) (HPC) 100 % of control | dose: 64.0 mg/kg/injection, schedule: Q01DX005 (ip), vehicle: Klucel (hydroxypropylcellulose) (HPC) 94 % of control | dose: 128.0 mg/kg/injection, schedule: Q01DX005 (ip), vehicle: Klucel (hydroxypropylcellulose) (HPC) 97 % of control

N[C@H](C(=O)O)[C@@H]1CC(Cl)=NO1
inactive: [2] 93 % of control | [3] 94 % of control | [4] 113 % of control | dose: 8.0 mg/kg/injection, schedule: Q01DX005 (ip), vehicle: saline with Tween-80 108 % of control | dose: 8.0 mg/kg/injection, schedule: Q12HX002 (ip), vehicle: saline 118 % of control | dose: 16.0 mg/kg/injection, schedule: Q01DX001 (ip), vehicle: saline 100 % of control and 114 % of control | dose: 16.0 mg/kg/injection, schedule: Q12HX002 (ip), vehicle: saline 97 % of control | dose: 32.0 mg/kg/injection, schedule: Q01DX001 (ip), vehicle: saline 101 % of control | dose: 32.0 mg/kg/injection, schedule: Q12HX002 (ip), vehicle: saline 113 % of control | dose: 64.0 mg/kg/injection, schedule: Q01DX001 (ip), vehicle: saline 103 % of control and 113 % of control | dose: 64.0 mg/kg/injection, schedule: Q01DX001 (oral), vehicle: saline 93 % of control and 105 % of control | dose: 64.0 mg/kg/injection, schedule: Q12HX002 (ip), vehicle: saline 116 % of control | dose: 128.0 mg/kg/injection, schedule: Q01DX001 (ip), vehicle: saline 106 % of control and 108 % of control | dose: 128.0 mg/kg/injection, schedule: Q01DX001 (oral), vehicle: saline 98 % of control and 106 % of control | dose: 128.0 mg/kg/injection, schedule: Q12HX002 (ip), vehicle: saline 108 % of control | dose: 256.0 mg/kg/injection, schedule: Q01DX001 (ip), vehicle: saline 106 % of control and 108 % of control | dose: 256.0 mg/kg/injection, schedule: Q01DX001 (oral), vehicle: saline 102 % of control and 117 % of control | dose: 512.0 mg/kg/injection, schedule: Q01DX001 (oral), vehicle: saline 106 % of control and 121 % of control | dose: 1024.0 mg/kg/injection, schedule: Q01DX001 (oral), vehicle: saline 110 % of control and 115 % of control

N=c1ccn2c(n1)OC1C(O)C(CO)OC12 (stereo unspecified)
inactive: dose: 100.0 mg/kg/injection, schedule: Q01DX001 (ip), vehicle: saline 118 % of control | dose: 100.0 mg/kg/injection, schedule: Q01DX005 (ip), vehicle: saline 106 % of control and 112 % of control | dose: 200.0 mg/kg/injection, schedule: Q01DX001 (ip), vehicle: saline 123 % of control | dose: 200.0 mg/kg/injection, schedule: Q01DX005 (ip), vehicle: saline 120 % of control and 122 % of control | dose: 400.0 mg/kg/injection, schedule: Q01DX001 (ip), vehicle: saline 111 % of control | dose: 400.0 mg/kg/injection, schedule: Q01DX005 (ip), vehicle: saline 122 % of control | dose: 800.0 mg/kg/injection, schedule: Q01DX001 (ip), vehicle: saline 116 % of control

CCC1CC2CN(CCc3c([nH]c4ccccc34)C(C(=O)OC)(c3cc4c(cc3OC)N(C)C3C(O)(C(=O)OC)C(OC(C)=O)C5(CC)C=CCN6CCC43C65)C2)C1 (stereo unspecified)
inactive: dose: 0.05 mg/kg/injection, schedule: Q01DX005 (ip), vehicle: Klucel (hydroxypropylcellulose) (HPC) 102 % of control | dose: 0.1 mg/kg/injection, schedule: Q01DX005 (ip), vehicle: Klucel (hydroxypropylcellulose) (HPC) 108 % of control | dose: 0.2 mg/kg/injection, schedule: Q01DX005 (ip), vehicle: Klucel (hydroxypropylcellulose) (HPC) 108 % of control | dose: 0.4 mg/kg/injection, schedule: Q01DX005 (ip), vehicle: Klucel (hydroxypropylcellulose) (HPC) 108 % of control | dose: 0.8 mg/kg/injection, schedule: Q01DX005 (ip), vehicle: Klucel (hydroxypropylcellulose) (HPC) 108 % of control | dose: 1.6 mg/kg/injection, schedule: Q01DX005 (ip), vehicle: Klucel (hydroxypropylcellulose) (HPC) 102 % of control

O=C1c2c(O)ccc(O)c2C(=O)c2c(NCCNCCO)ccc(NCCNCCO)c21
inactive: [2] 102 % of control | [3] 96 % of control | [4] 106 % of control

O=c1c(O)c(-c2ccc(O)c(O)c2)oc2cc(O)cc(O)c12
inactive: dose: 12.5 mg/kg/injection, schedule: Q01DX005 (ip), vehicle: Klucel (hydroxypropylcellulose) (HPC) 95 % of control | dose: 12.5 mg/kg/injection, schedule: Q01DX005 (ip), vehicle: other 107 % of control | dose: 25.0 mg/kg/injection, schedule: Q01DX005 (ip), vehicle: Klucel (hydroxypropylcellulose) (HPC) 104 % of control | dose: 25.0 mg/kg/injection, schedule: Q01DX005 (ip), vehicle: other 93 % of control | dose: 50.0 mg/kg/injection, schedule: Q01DX005 (ip), vehicle: Klucel (hydroxypropylcellulose) (HPC) 100 % of control | dose: 50.0 mg/kg/injection, schedule: Q01DX005 (ip), vehicle: other 91 % of control | dose: 100.0 mg/kg/injection, schedule: Q01DX005 (ip), vehicle: Klucel (hydroxypropylcellulose) (HPC) 99 % of control | dose: 100.0 mg/kg/injection, schedule: Q01DX005 (ip), vehicle: other 102 % of control | dose: 200.0 mg/kg/injection, schedule: Q01DX005 (ip), vehicle: other 105 % of control

S=c1nc[nH]c2nc[nH]c12
inactive: dose: 10.0 mg/kg/injection, schedule: Q01DX001 (ip), vehicle: Klucel (hydroxypropylcellulose) (HPC) 103 % of control | dose: 10.0 mg/kg/injection, schedule: Q01DX005 (ip), vehicle: Klucel (hydroxypropylcellulose) (HPC) 89 % of control and 103 % of control | dose: 20.0 mg/kg/injection, schedule: Q01DX001 (ip), vehicle: Klucel (hydroxypropylcellulose) (HPC) 91 % of control | dose: 20.0 mg/kg/injection, schedule: Q01DX005 (ip), vehicle: Klucel (hydroxypropylcellulose) (HPC) 107 % of control and 122 % of control | dose: 40.0 mg/kg/injection, schedule: Q01DX001 (ip), vehicle: Klucel (hydroxypropylcellulose) (HPC) 109 % of control | dose: 80.0 mg/kg/injection, schedule: Q01DX001 (ip), vehicle: Klucel (hydroxypropylcellulose) (HPC) 113 % of control | dose: 160.0 mg/kg/injection, schedule: Q01DX001 (ip), vehicle: Klucel (hydroxypropylcellulose) (HPC) 102 % of control

O=c1[nH]cc(F)c(=O)[nH]1
inactive: dose: 2.0 mg/kg/injection, schedule: Q01DX005 (ip), vehicle: saline 113 % of control | dose: 2.5 mg/kg/injection, schedule: Q01DX005 (ip), vehicle: saline 101 % of control | dose: 4.0 mg/kg/injection, schedule: Q01DX005 (ip), vehicle: saline 108 % of control | dose: 5.0 mg/kg/injection, schedule: Q01DX005 (ip), vehicle: saline 94 % of control | dose: 8.0 mg/kg/injection, schedule: Q01DX005 (ip), vehicle: saline 97 % of control | dose: 10.0 mg/kg/injection, schedule: Q01DX005 (ip), vehicle: saline 97 % of control | dose: 16.0 mg/kg/injection, schedule: Q01DX005 (ip), vehicle: saline 106 % of control | dose: 20.0 mg/kg/injection, schedule: Q01DX005 (ip), vehicle: saline 95 % of control | [1] 106 % of control

O=C(N/N=C\c1cc(Br)cc(Br)c1O)N/N=C/c1cc(Br)cc(Br)c1O
inactive: dose: 32.0 mg/kg/injection, schedule: Q01DX005 (ip), vehicle: saline with Tween-80 88 % of control | dose: 64.0 mg/kg/injection, schedule: Q01DX005 (ip), vehicle: saline with Tween-80 97 % of control | dose: 128.0 mg/kg/injection, schedule: Q01DX005 (ip), vehicle: saline with Tween-80 88 % of control | dose: 256.0 mg/kg/injection, schedule: Q01DX005 (ip), vehicle: saline with Tween-80 93 % of control
